Patent US10670605B2, “Cysteine reactive probes and uses thereof” (The Scripps Research Institute, priority 2015, dated 2020)

Key:
Experiment in all cases: Competitive isoTOP-ABPP in situ (fragment-treated cells)
Type in all cases: cell-based
[1] = biological target: T1, cysteines in MDA-MB-231 and Ramos cells (Homo sapiens, UniProt A6NDU8); details: 200 μM, insitu, 231
T1 sequence (A6NDU8 1-294): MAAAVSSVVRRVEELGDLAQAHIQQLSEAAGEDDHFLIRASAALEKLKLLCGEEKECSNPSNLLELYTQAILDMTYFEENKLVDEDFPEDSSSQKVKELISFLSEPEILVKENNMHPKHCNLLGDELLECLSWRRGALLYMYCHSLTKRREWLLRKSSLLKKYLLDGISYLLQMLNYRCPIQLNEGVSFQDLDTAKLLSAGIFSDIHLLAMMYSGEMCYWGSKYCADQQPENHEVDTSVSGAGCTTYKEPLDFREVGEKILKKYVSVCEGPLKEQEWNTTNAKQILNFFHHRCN

[2] = biological target: T2, cysteines in MDA-MB-231 and Ramos cells (Homo sapiens, UniProt P13667); details: 200 μM, insitu
T2 sequence (P13667 21-645): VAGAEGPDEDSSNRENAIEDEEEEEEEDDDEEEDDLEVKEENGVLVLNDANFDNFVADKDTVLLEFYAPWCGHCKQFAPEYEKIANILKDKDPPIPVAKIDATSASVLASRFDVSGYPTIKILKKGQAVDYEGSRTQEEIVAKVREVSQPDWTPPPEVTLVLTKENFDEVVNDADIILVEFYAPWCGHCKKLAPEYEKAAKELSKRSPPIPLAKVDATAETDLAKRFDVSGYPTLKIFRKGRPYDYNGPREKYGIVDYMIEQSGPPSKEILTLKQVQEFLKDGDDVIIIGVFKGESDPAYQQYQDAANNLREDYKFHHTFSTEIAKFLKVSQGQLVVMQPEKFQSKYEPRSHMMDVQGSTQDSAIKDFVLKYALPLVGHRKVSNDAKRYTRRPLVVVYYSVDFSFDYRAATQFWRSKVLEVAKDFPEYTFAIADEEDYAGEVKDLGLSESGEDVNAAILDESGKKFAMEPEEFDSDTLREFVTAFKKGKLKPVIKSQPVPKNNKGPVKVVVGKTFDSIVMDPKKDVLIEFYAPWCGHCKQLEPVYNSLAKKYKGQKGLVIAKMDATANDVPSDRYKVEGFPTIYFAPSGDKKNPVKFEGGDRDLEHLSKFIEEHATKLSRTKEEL

[3] = biological target: T3, cysteines in MDA-MB-231 and Ramos cells (Homo sapiens, UniProt P24752); details: 200 μM, insitu
T3 sequence (P24752 34-427): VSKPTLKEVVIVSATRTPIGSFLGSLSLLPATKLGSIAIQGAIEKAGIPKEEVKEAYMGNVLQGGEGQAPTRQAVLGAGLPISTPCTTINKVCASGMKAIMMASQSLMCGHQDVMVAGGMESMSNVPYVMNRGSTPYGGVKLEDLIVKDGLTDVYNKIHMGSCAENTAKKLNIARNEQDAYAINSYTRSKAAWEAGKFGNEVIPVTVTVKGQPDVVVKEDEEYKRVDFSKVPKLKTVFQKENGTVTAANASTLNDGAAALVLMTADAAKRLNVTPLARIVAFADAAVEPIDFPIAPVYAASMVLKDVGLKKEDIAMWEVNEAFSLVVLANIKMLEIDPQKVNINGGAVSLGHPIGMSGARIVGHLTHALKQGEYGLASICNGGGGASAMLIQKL

[4] = biological target: T4, cysteines in MDA-MB-231 and Ramos cells (Homo sapiens, UniProt P42765); details: 200 μM, insitu
T4 sequence (P42765 1-397): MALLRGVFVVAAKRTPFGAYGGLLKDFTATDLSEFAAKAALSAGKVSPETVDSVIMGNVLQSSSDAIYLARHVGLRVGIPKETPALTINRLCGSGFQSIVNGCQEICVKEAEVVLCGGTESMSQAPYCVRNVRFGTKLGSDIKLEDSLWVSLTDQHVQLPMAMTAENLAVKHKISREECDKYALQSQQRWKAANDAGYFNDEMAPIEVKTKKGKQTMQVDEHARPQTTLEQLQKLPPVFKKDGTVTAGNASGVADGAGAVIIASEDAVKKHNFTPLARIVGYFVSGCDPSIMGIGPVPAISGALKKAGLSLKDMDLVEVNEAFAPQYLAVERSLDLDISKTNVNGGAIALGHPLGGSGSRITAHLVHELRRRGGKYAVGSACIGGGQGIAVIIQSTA

[5] = biological target: cysteines in MDA-MB-231 and Ramos cells (Homo sapiens, UniProt P62888); details: 200 μM, insitu
[6] = biological target: T5, cysteines in MDA-MB-231 and Ramos cells (Homo sapiens, UniProt Q13418); details: 200 μM, insitu
T5 sequence (Q13418 1-452): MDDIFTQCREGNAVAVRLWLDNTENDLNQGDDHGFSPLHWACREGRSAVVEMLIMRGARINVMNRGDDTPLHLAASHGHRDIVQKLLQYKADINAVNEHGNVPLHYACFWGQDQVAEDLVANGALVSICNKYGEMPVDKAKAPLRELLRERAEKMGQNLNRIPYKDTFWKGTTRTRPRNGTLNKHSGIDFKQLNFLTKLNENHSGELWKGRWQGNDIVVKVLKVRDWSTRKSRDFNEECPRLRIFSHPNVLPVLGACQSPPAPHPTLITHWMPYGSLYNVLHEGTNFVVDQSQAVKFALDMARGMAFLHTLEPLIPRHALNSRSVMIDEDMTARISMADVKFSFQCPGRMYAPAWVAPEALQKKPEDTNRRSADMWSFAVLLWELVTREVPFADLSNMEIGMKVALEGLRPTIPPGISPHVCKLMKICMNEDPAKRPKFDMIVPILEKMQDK

[7] = biological target: T6, cysteines in MDA-MB-231 and Ramos cells (Homo sapiens, UniProt Q9BQ69); details: 200 μM, insitu, 231
T6 sequence (Q9BQ69 1-325): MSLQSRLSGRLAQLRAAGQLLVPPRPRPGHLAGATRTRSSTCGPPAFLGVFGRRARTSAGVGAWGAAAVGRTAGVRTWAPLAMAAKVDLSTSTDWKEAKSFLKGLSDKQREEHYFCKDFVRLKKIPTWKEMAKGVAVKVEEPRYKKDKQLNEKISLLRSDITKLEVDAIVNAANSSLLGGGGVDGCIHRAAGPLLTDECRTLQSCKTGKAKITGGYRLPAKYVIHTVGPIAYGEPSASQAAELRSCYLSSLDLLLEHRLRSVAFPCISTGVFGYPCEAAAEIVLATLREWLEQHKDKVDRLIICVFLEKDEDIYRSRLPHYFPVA

Row | isoTOP-ABPP ratio A6NDU8_C179 [1] | isoTOP-ABPP ratio P13667_C206 [2]; 231 | isoTOP-ABPP ratio P13667_C555 ([2]; ramos) | isoTOP-ABPP ratio P24752_C119 [3]; 231 | isoTOP-ABPP ratio P24752_C413 [3]; 231 | isoTOP-ABPP ratio P24752_C119 ([3]; ramos) | isoTOP-ABPP ratio P24752_C413 ([3]; ramos) | isoTOP-ABPP ratio P42765_C92 ([4]; ramos) | isoTOP-ABPP ratio P62888_C92 [5]; 231 | isoTOP-ABPP ratio P62888_C92 ([5]; ramos) | isoTOP-ABPP ratio Q13418_C346 [6]; 231 | isoTOP-ABPP ratio Q13418_C346 ([6]; ramos) | isoTOP-ABPP ratio Q9BQ69_C186 [7] | isoTOP-ABPP ratio, P24752_C126 [3]; 231 | isoTOP-ABPP ratio, P24752_C196 [3]; 231 | isoTOP-ABPP ratio P42765_C92 [4]; 231 | isoTOP-ABPP ratio P13667_C555 [2]; 231 | Compound
1 | 0.8 | 1.1 | 2.0 | 2.1 | 3.5 | 2.8 | 20.0 | 2.2 | 0.8 | 2.0 | 0.7 | 2.1 | 1.4 | – | – | – | – | O=C(CCl)NCCc1c[nH]c2ccccc12 [compound 13]
2 | 0.9 | 0.8 | – | 1.6 | 1.5 | – | – | – | 0.9 | – | 0.5 | – | 1.4 | 1.4 | 1.5 | 1.3 | – | O=C(CCl)NC12CC3CC(CC(C3)C1)C2 [compound 21]
3 | 0.7 | 1.0 | – | 1.6 | 1.9 | – | – | – | 0.6 | – | 0.6 | – | 2.4 | – | – | 1.2 | 1.2 | CC(C)CCOCCNC(=O)CCl [compound 27]
4 | 1.4 | 0.9 | – | 1.2 | 1.1 | – | – | – | 3.2 | – | 1.0 | – | 3.6 | – | 1.0 | 0.9 | 0.8 | C=CC(=O)Nc1cc(F)c(N2CCN(C(=O)OC(C)(C)C)CC2)c(F)c1 [compound 38]
5 | 0.6 | 1.0 | – | 1.9 | 0.9 | – | – | – | 0.8 | – | 0.6 | – | 1.2 | 0.8 | 0.9 | 1.1 | 1.0 | Cc1ccc(C=C(C#N)C(=O)NCCN2CCOCC2)cc1 [compound 41]
